Measured values reported in US10750743B2, “Pyridazinone herbicides” (E.I. DU PONT DE NEMOURS AND COMPANY, priority 2015, dated 2020).

What was measured:
Type in all cases: in vivo
[1] = system: barnyardgrass (Echinochloa crus-galli); experiment: Test A preemergence, directed soil spray, visual injury rating; conditions: 0 is no effect, 100 is complete control
Summary of the method: (§1)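 Seeds sown in a loam soil–sand blend received a directed preemergence soil spray of test chemical in a non-phytotoxic solvent mixture with surfactant. Postemergence plants were sprayed at 2 to 10 cm, one- to two-leaf stage. After approximately 10 d in greenhouse, injury was visually rated 0 (no effect) to 100 (complete control) against untreated controls.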

[2] = system: foxtail, giant (giant foxtail, Setaria faberii); experiment: as above; conditions: 0 is no effect, 100 is complete control
Summary of the method: as §1

kochia (Kochia scoparia) [3] = experiment: as above; conditions: 0 is no effect, 100 is complete control
Summary of the method: as §1

[4] = system: pigweed (Amaranthus retroflexus); experiment: as above; conditions: 0 is no effect, 100 is complete control
Summary of the method: as §1

[5] = system: ragweed (common ragweed, Ambrosia elatior); experiment: as above; conditions: 0 is no effect, 100 is complete control
Summary of the method: as §1

[6] = system: ryegrass, It. (Italian ryegrass, Lolium multiflorum); experiment: as above; conditions: 0 is no effect, 100 is complete control
Summary of the method: as §1

[7] = system: barnyardgrass (Echinochloa crus-galli); experiment: Test B flooded paddy test, visual rating; conditions: Flood, 250 g ai/ha, applied to paddy water, rated after 13 to 15 d
Summary of the method: (§2)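 Plants at the 2-leaf stage were flooded to 3 cm above soil, and test compounds were applied directly into the paddy water, which was held at that depth throughout. After 13 to 15 d in a greenhouse, injury was rated visually against untreated controls on a 0–100 scale (0 no effect, 100 complete control).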

[8] = system: ducksalad (Heteranthera limosa); experiment: Test B flooded paddy test, visual rating; conditions: Flood, 250 g ai/ha, applied to paddy water, rated after 13 to 15 d
Summary of the method: as §2

rice (Oryza sativa) = experiment: Test B flooded paddy test, visual rating; conditions: Flood, 250 g ai/ha, applied to paddy water, rated after 13 to 15 d
Summary of the method: as §2

[9] = system: sedge, umbrella (small-flower umbrella sedge, Cyperus difformis); experiment: Test B flooded paddy test, visual rating; conditions: Flood, 250 g ai/ha, applied to paddy water, rated after 13 to 15 d
Summary of the method: as §2

[10] = system: barnyardgrass (Echinochloa crus-galli); experiment: Test A postemergence application, visual injury rating; conditions: 0 to 100 scale, 0 no effect, 100 complete control
Summary of the method: as §1

[11] = system: blackgrass (Alopecurus myosuroides); experiment: as above; conditions: 0 to 100 scale, 0 no effect, 100 complete control
Summary of the method: as §1

corn (Zea mays) = experiment: as above; conditions: for Plant response rating (0 to 100 scale), Corn: 0 is no effect, 100 is complete control; for Corn plant response rating: 0 to 100 scale, 0 no effect, 100 complete control
Summary of the method: as §1

[12] = system: foxtail, giant (giant foxtail, Setaria faberii); experiment: as above; conditions: for Plant response rating (0 to 100 scale), Foxtail, Giant: 0 is no effect, 100 is complete control; for Foxtail, Giant plant response rating: 0 to 100 scale, 0 no effect, 100 complete control
Summary of the method: as §1

[13] = system: galium (catchweed bedstraw, Galium aparine); experiment: as above; conditions: for Plant response rating (0 to 100 scale), Galium: 0 is no effect, 100 is complete control; for Galium plant response rating: 0 to 100 scale, 0 no effect, 100 complete control
Summary of the method: as §1

kochia (Kochia scoparia) [14] = experiment: as above; conditions: for Plant response rating (0 to 100 scale), Kochia: 0 is no effect, 100 is complete control; for Kochia plant response rating: 0 to 100 scale, 0 no effect, 100 complete control
Summary of the method: as §1

[15] = system: pigweed (Amaranthus retroflexus); experiment: as above; conditions: for Plant response rating (0 to 100 scale), Pigweed: 0 is no effect, 100 is complete control; for Pigweed plant response rating: 0 to 100 scale, 0 no effect, 100 complete control
Summary of the method: as §1

[16] = system: ragweed (common ragweed, Ambrosia elatior); experiment: as above; conditions: for Plant response rating (0 to 100 scale), Ragweed: 0 is no effect, 100 is complete control; for Ragweed plant response rating: 0 to 100 scale, 0 no effect, 100 complete control
Summary of the method: as §1

[17] = system: ryegrass, It. (Italian ryegrass, Lolium multiflorum); experiment: as above; conditions: for Plant response rating (0 to 100 scale), Ryegrass, It.: 0 is no effect, 100 is complete control; for Ryegrass, It. plant response rating: 0 to 100 scale, 0 no effect, 100 complete control
Summary of the method: as §1

[18] = system: wheat (Triticum aestivum); experiment: as above; conditions: for Plant response rating (0 to 100 scale), Wheat: 0 is no effect, 100 is complete control; for Wheat plant response rating: 0 to 100 scale, 0 no effect, 100 complete control
Summary of the method: as §1

Row | SMILES | Plant response rating (0 to 100 scale), Barnyardgrass ([1]; 125 g ai/ha) | Plant response rating (0 to 100 scale), Foxtail, Giant ([2]; 125 g ai/ha) | Plant response rating (0 to 100 scale), Kochia (kochia (Kochia scoparia) [3]; 125 g ai/ha) | Plant response rating (0 to 100 scale), Pigweed ([4]; 125 g ai/ha) | Plant response rating (0 to 100 scale), Ragweed ([5]; 125 g ai/ha) | Plant response rating (0 to 100 scale), Ryegrass, It. ([6]; 125 g ai/ha) | Barnyardgrass plant response rating (0 to 100 scale, 0 is no effect, 100 is complete control) [7] | Ducksalad plant response rating (0 to 100 scale, 0 is no effect, 100 is complete control) [8] | Rice plant response rating (0 to 100 scale, 0 is no effect, 100 is complete control) (rice (Oryza sativa)) | Sedge, Umbrella plant response rating (0 to 100 scale, 0 is no effect, 100 is complete control) [9] | Barnyardgrass plant response rating ([10]; 125 g ai/ha) | Blackgrass plant response rating ([11]; 125 g ai/ha) | Corn plant response rating (corn (Zea mays); 125 g ai/ha) | Foxtail, Giant plant response rating ([12]; 125 g ai/ha) | Galium plant response rating ([13]; 125 g ai/ha) | Kochia plant response rating (kochia (Kochia scoparia) [14]; 125 g ai/ha) | Pigweed plant response rating ([15]; 125 g ai/ha) | Ragweed plant response rating ([16]; 125 g ai/ha) | Ryegrass, It. plant response rating ([17]; 125 g ai/ha) | Wheat plant response rating ([18]; 125 g ai/ha) | other results
1 | COC(=O)Oc1c(C)nn(C)c(=O)c1-c1ccc(Cl)c2sccc12 [Compound 59] | 0 | 0 | 20 | 0 | 30 | 10 | 0 | 0 | 20 | 0 | 0 | 0 | 20 | 0 | 80 | 60 | 30 | 0 | 10 | 0 | Plant response rating (0 to 100 scale), Barnyardgrass ([1]; 31 g ai/ha): 0; Plant response rating (0 to 100 scale), Foxtail, Giant ([2]; 31 g ai/ha): 0; Plant response rating (0 to 100 scale), Kochia (kochia (Kochia scoparia) [3]; 31 g ai/ha): 10; Plant response rating (0 to 100 scale), Pigweed ([4]; 31 g ai/ha): 0; Plant response rating (0 to 100 scale), Ragweed ([5]; 31 g ai/ha): 50; Plant response rating (0 to 100 scale), Ryegrass, It. ([6]; 31 g ai/ha): 10; Barnyardgrass plant response rating ([10]; 31 g ai/ha): 0; Blackgrass plant response rating ([11]; 31 g ai/ha): 0; Plant response rating (0 to 100 scale), Corn (corn (Zea mays); 31 g ai/ha): 0; Plant response rating (0 to 100 scale), Foxtail, Giant ([12]; 31 g ai/ha): 0; Plant response rating (0 to 100 scale), Galium ([13]; 31 g ai/ha): 20; Plant response rating (0 to 100 scale), Kochia (kochia (Kochia scoparia) [14]; 31 g ai/ha): 0; Plant response rating (0 to 100 scale), Pigweed ([15]; 31 g ai/ha): 0; Plant response rating (0 to 100 scale), Ragweed ([16]; 31 g ai/ha): 0; Plant response rating (0 to 100 scale), Ryegrass, It. ([17]; 31 g ai/ha): 0; Plant response rating (0 to 100 scale), Wheat ([18]; 31 g ai/ha): 0
2 | COC(=O)Oc1c(C)nn(C)c(=O)c1-c1ccc(Cl)c2oc(C)cc12 [Compound 53] | 30 | 0 | 0 | 40 | 0 | 60 | 0 | 0 | 0 | 0 | 10 | 0 | 0 | 0 | 80 | 0 | 50 | 30 | 30 | 0 | Plant response rating (0 to 100 scale), Barnyardgrass ([1]; 31 g ai/ha): 0; Plant response rating (0 to 100 scale), Foxtail, Giant ([2]; 31 g ai/ha): 0; Plant response rating (0 to 100 scale), Kochia (kochia (Kochia scoparia) [3]; 31 g ai/ha): 0; Plant response rating (0 to 100 scale), Pigweed ([4]; 31 g ai/ha): 0; Plant response rating (0 to 100 scale), Ragweed ([5]; 31 g ai/ha): 20; Plant response rating (0 to 100 scale), Ryegrass, It. ([6]; 31 g ai/ha): 0; Barnyardgrass plant response rating ([10]; 31 g ai/ha): 0; Blackgrass plant response rating ([11]; 31 g ai/ha): 0; Corn plant response rating (corn (Zea mays); 31 g ai/ha): 0; Foxtail, Giant plant response rating ([12]; 31 g ai/ha): 0; Galium plant response rating ([13]; 31 g ai/ha): 60; Kochia plant response rating (kochia (Kochia scoparia) [14]; 31 g ai/ha): 0; Pigweed plant response rating ([15]; 31 g ai/ha): 30; Ragweed plant response rating ([16]; 31 g ai/ha): 0; Ryegrass, It. plant response rating ([17]; 31 g ai/ha): 10; Wheat plant response rating ([18]; 31 g ai/ha): 0
3 | CCc1sc2ncccc2c1-c1c(OC(=O)OC(C)C)c(C)nn(C)c1=O [Compound 20] | 0 | 0 | 0 | 0 | 0 | 0 | 0 | 0 | 0 | 0 | 0 | 0 | 0 | 0 | 10 | 0 | 20 | 0 | 0 | 0 | Plant response rating (0 to 100 scale), Barnyardgrass ([1]; 500 g ai/ha): 0; Plant response rating (0 to 100 scale), Foxtail, Giant ([2]; 500 g ai/ha): 0; Plant response rating (0 to 100 scale), Kochia (kochia (Kochia scoparia) [3]; 500 g ai/ha): 0; Plant response rating (0 to 100 scale), Pigweed ([4]; 500 g ai/ha): 40; Plant response rating (0 to 100 scale), Ragweed ([5]; 500 g ai/ha): 0; Plant response rating (0 to 100 scale), Ryegrass, It. ([6]; 500 g ai/ha): 0; Barnyardgrass plant response rating ([10]; 500 g ai/ha): 0; Blackgrass plant response rating ([11]; 500 g ai/ha): 0; Corn plant response rating (corn (Zea mays); 500 g ai/ha): 0; Foxtail, Giant plant response rating ([12]; 500 g ai/ha): 0; Galium plant response rating ([13]; 500 g ai/ha): 40; Kochia plant response rating (kochia (Kochia scoparia) [14]; 500 g ai/ha): 0; Pigweed plant response rating ([15]; 500 g ai/ha): 50; Ragweed plant response rating ([16]; 500 g ai/ha): 0; Ryegrass, It. plant response rating ([17]; 500 g ai/ha): 0; Wheat plant response rating ([18]; 500 g ai/ha): 0
4 | CC(=O)Oc1c(Cl)nn(C)c(=O)c1-c1nccc2ccccc12 [Compound 66] | 0 | 0 | 0 | 20 | 0 | 50 | 0 | 0 | 0 | 0 | 10 | 0 | 0 | 10 | 50 | 40 | 50 | 30 | 40 | 0 | Plant response rating (0 to 100 scale), Barnyardgrass ([1]; 31 g ai/ha): 0; Plant response rating (0 to 100 scale), Foxtail, Giant ([2]; 31 g ai/ha): 0; Plant response rating (0 to 100 scale), Kochia (kochia (Kochia scoparia) [3]; 31 g ai/ha): 0; Plant response rating (0 to 100 scale), Pigweed ([4]; 31 g ai/ha): 10; Plant response rating (0 to 100 scale), Ragweed ([5]; 31 g ai/ha): 0; Plant response rating (0 to 100 scale), Ryegrass, It. ([6]; 31 g ai/ha): 0; Barnyardgrass plant response rating ([10]; 31 g ai/ha): 0; Blackgrass plant response rating ([11]; 31 g ai/ha): 0; Plant response rating (0 to 100 scale), Corn (corn (Zea mays); 31 g ai/ha): 0; Plant response rating (0 to 100 scale), Foxtail, Giant ([12]; 31 g ai/ha): 0; Plant response rating (0 to 100 scale), Galium ([13]; 31 g ai/ha): 0; Plant response rating (0 to 100 scale), Kochia (kochia (Kochia scoparia) [14]; 31 g ai/ha): 0; Plant response rating (0 to 100 scale), Pigweed ([15]; 31 g ai/ha): 40; Plant response rating (0 to 100 scale), Ragweed ([16]; 31 g ai/ha): 10; Plant response rating (0 to 100 scale), Ryegrass, It. ([17]; 31 g ai/ha): 20; Plant response rating (0 to 100 scale), Wheat ([18]; 31 g ai/ha): 0
